Laboratory results taken from ChEMBL document CHEMBL1147999, “Caffeoylglycolic and caffeoylamino acid derivatives, halfmers of L-chicoric acid, as new HIV-1 integrase inhibitors” (Eur J Med Chem, 2007).
Activity calls are given as the source filed them. The calls are words filed in the database; no cut-off is given here.

Columns and labels:
[1] = test system: Human immunodeficiency virus 1; assay: Antiviral activity against HIV1 3B in MT4 cells at 200 uM; format: functional, organism-based
[2] = target: Human immunodeficiency virus type 1 integrase (Human immunodeficiency virus 1, UniProt Q7ZJM1); assay: Inhibition of recombinant HIV1 integrase expressed in Escherichia coli
[3] = Human immunodeficiency virus 1, 3B

Sequence of Human immunodeficiency virus type 1 integrase (Q7ZJM1 whole entry): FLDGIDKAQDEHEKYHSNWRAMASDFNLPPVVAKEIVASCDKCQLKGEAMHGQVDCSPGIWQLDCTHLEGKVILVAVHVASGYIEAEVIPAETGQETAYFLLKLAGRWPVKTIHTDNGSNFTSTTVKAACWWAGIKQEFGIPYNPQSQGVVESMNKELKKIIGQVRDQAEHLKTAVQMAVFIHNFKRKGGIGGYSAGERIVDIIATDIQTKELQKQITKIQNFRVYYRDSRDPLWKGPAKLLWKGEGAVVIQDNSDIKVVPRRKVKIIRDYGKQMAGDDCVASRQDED

| Structure (SMILES) | IC50 [2] | also measured |
| --- | --- | --- |
| O=C(/C=C/c1ccc(O)c(O)c1)O[C@H](C(=O)O)[C@@H](OC(=O)/C=C/c1ccc(O)c(O)c1)C(=O)O | – | CC50 [1, 3]: > 42.2 µM; EC50 [1, 3]: 7.5 µM |
| O=C(/C=C/c1ccc(O)c(O)c1)NC(Cc1ccc(O)cc1)C(=O)O (centres undefined) | 129 µM | – |
| COc1ccc(/C=C/C(=O)OCC(=O)O)cc1OC | > 300 µM | – |
| CC(C)CC(NC(=O)/C=C/c1ccc(O)c(O)c1)C(=O)O (centres undefined) | 130 µM | – |
| O=C(O)COC(=O)/C=C/c1ccc(O)c(O)c1 | 10.5 µM | – |

More lines, main results first:

| IC50 [2] | Structure (SMILES) | also measured |
| --- | --- | --- |
| 95 µM | O=C(/C=C/c1ccc(O)c(O)c1)NC(Cc1ccccc1)C(=O)O (centres undefined) | – |
| 172 µM | O=C(O)CNC(=O)/C=C/c1ccc(O)c(O)c1 | – |
| 12 µM | O=C(/C=C/c1ccc(O)c(O)c1)NC(Cc1ccc(O)c(O)c1)C(=O)O (centres undefined) | Activity [1]: inactive |
| 128 µM | CC(OC(=O)/C=C/c1ccc(O)c(O)c1)C(=O)O (centres undefined) | Activity [1]: inactive |
| > 300 µM | COc1cc(/C=C/C(=O)OCC(=O)O)ccc1O | – |
| 148 µM | CC(NC(=O)/C=C/c1ccc(O)c(O)c1)C(=O)O (centres undefined) | – |
